The text below walks through data of patent publication US8022206B2 (OSI Pharmaceuticals, LLC, priority 2008, dated 2011).

The target in test [1] is RON (human) (Homo sapiens, UniProt Q04912). The test is described as follows: RON (human) AlphaScreen kinase assay, Km of ATP. It is filed as biochemical. As to conditions: AlphaScreen, Km of ATP; read-out: RON biochemical IC50. Put shortly: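 Reaction was started with enzyme and run 30 min at RT. PT66 donor/acceptor beads in an EDTA-containing Tris pH 7.5 buffer were then added, and the signal was read after 1 h.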

The target of test [2] is MET (human) (Homo sapiens, UniProt P08581). The test is described as follows: MET (human) AlphaScreen kinase assay, Km of ATP. As to conditions: AlphaScreen, Km of ATP; read-out: Met biochemical IC50. It is filed as biochemical. Put shortly:
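Human MET at lot-optimised concentration in 50 mM Tris pH 7.4 buffer with 1 mM DTT, compound at 1% DMSO final; enzyme starts the reaction, 60 min at RT.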

Chain of MET (human) (P08581 25-1390): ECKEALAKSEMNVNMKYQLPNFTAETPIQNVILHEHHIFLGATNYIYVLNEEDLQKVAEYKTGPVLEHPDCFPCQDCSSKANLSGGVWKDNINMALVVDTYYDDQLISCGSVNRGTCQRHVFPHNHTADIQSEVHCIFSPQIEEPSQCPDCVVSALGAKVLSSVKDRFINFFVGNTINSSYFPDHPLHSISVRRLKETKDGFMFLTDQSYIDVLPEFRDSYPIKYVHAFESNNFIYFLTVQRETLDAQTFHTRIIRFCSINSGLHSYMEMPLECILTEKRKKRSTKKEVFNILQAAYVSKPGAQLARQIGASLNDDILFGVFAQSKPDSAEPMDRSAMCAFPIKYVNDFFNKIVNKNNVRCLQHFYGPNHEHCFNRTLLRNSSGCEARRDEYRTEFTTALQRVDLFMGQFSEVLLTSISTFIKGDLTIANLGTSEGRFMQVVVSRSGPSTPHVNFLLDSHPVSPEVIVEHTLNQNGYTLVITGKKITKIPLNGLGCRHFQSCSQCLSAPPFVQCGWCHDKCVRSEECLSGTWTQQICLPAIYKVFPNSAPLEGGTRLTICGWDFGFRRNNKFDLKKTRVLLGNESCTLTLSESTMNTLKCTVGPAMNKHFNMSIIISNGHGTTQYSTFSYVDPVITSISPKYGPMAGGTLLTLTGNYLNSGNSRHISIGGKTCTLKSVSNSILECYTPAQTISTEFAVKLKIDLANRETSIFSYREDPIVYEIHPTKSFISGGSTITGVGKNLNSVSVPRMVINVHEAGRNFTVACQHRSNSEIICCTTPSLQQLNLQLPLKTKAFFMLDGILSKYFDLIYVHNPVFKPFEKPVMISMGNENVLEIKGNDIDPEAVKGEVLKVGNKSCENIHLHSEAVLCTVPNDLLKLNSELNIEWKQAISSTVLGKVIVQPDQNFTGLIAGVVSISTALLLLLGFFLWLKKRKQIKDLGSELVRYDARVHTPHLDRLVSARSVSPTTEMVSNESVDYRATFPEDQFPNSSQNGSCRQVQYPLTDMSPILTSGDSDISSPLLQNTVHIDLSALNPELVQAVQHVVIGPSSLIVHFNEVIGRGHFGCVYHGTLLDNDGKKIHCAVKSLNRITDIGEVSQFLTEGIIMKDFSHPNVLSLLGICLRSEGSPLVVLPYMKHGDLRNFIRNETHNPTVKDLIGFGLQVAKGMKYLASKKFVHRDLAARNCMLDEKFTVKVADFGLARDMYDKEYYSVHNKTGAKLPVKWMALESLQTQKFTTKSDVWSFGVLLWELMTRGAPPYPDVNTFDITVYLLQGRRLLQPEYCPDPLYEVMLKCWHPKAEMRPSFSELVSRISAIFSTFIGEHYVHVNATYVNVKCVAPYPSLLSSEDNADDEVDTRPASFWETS
Chain of RON (human) (Q04912 25-1400): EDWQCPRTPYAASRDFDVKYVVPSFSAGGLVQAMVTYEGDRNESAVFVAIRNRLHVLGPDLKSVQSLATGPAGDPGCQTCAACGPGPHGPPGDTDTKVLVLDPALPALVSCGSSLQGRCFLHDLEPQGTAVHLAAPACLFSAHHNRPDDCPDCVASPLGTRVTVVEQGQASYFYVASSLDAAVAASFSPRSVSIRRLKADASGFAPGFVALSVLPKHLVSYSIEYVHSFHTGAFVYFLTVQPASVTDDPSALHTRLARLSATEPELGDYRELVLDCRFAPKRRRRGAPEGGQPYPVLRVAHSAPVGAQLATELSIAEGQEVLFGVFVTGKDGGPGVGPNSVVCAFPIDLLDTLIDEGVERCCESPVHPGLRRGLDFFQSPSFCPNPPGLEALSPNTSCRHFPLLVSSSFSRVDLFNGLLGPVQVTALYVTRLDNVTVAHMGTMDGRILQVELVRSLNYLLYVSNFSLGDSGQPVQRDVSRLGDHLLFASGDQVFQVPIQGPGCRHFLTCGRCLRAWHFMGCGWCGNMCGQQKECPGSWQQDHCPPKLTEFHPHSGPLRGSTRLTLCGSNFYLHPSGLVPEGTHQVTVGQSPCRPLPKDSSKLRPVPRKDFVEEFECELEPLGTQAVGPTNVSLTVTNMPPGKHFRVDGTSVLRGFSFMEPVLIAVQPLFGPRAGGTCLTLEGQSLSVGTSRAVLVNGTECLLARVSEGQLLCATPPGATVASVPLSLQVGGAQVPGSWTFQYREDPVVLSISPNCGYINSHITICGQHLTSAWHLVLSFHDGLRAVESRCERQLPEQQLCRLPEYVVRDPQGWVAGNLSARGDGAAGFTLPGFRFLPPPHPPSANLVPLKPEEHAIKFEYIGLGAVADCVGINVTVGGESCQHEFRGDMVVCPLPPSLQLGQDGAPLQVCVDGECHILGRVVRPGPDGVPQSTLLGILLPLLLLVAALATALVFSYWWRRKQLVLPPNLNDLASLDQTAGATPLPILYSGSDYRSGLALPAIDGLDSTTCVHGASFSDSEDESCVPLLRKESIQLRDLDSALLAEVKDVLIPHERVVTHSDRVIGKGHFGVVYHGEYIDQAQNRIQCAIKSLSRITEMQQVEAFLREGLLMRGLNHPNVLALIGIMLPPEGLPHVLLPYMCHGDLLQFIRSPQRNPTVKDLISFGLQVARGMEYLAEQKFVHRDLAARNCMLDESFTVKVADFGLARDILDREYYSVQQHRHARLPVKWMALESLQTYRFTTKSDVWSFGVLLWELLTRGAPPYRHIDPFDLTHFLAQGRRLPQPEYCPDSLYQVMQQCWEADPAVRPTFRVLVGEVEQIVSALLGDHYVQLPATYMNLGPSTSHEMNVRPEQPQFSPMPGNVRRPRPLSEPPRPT

As for `C[C@@H](Oc1c(N)ncc2c(-c3cccc(CN(C)C)c3)coc12)c1c(Cl)ccc(F)c1Cl` [Example 96, 7-[(R)-1-(2,6-Dichloro-3-fluorophenyl)ethoxy]-3-(3-dimethyl-aminomethylphenyl)furo[3,2-c]pyridin-6-ylamine], the IC50 in test [1] is 500 to 5000 nM; in test [2] it was < 500 nM.
The corresponding values for `C[C@@H](Oc1c(N)ncc2c(C3=CCN(C(=O)C(O)C(F)(F)F)CC3)coc12)c1c(Cl)ccc(F)c1Cl` (stereo partly drawn) [Example 270, 1-[4-{6-Amino-7-[(1R)-1-(2,6-dichloro-3-fluorophenyl)ethoxy]furo[3,2-c]pyridin-3-yl}-3,6-dihydropyridin-1(2H)-yl]-3,3,3-trifluoro-2-hydroxypropan-1-one] are 500 to 5000 nM and < 500 nM.
Consider `COc1cccc(CC(C)Oc2c(N)ncc3c(-c4cnn(C5CCNCC5)c4)coc23)c1` (stereo not drawn) [Example 437, 7-[2-(3-Methoxyphenyl)-1-methylethoxy]-3-(1-piperidin-4-yl-1H-pyrazol-4-yl)furo[3,2-c]pyridin-6-ylamine], for which the IC50 in test [1] and in test [2] was < 500 nM throughout.
On to `C[C@@H](Oc1c(N)ncc2c(C3=CCN(C(=O)[C@@H](N)CO)CC3)coc12)c1c(Cl)ccc(F)c1Cl` [Example 254, (2S)-2-Amino-1-[4-{6-amino-7-[(1R)-1-(2,6-dichloro-3-fluoro-phenyl)ethoxy]furo[3,2-c]pyridin-3-yl}-3,6-dihydropyridin-1(2H)-yl]-3-hydroxypropan-1-one], for which the IC50 in test [1] and in test [2] was < 500 nM throughout.
For the compound `C[C@@H](Oc1c(N)ncc2c(-c3ccc(C(=O)N4CCN(CCO)CC4)cc3)coc12)c1c(Cl)ccc(F)c1Cl` [Example 99, (4-{6-Amino-7-[(R)-1-(2,6-dichloro-3-fluorophenyl)ethoxy]-furo[3,2-c]pyridin-3-yl}phenyl)-[4-(2-hydroxyethyl)piperazin-1-yl]methanone], the IC50 in test [1] and in test [2] was < 500 nM in each case.
Take `C[C@@H](Oc1c(N)ncc2c(C3=CCN(C4CN(S(C)(=O)=O)C4)CC3)coc12)c1c(Cl)ccc(F)c1Cl` [Example 323]: the IC50 in test [1] and in test [2] was 500 to 5000 nM throughout.
As to `C[C@@H](Oc1c(N)ncc2c(C(=O)NC3CCN(C(=O)OC(C)(C)C)CC3)coc12)c1c(Cl)ccc(F)c1Cl` [Example 181, 4-({6-Amino-7-[(R)-1-(2,6-dichloro-3-fluorophenyl)ethoxy]furo[3,2-c]pyridine-3-carbonyl}-amino)-piperidine-1-carboxylic acid tert-butyl ester], the IC50 in test [1] was in the range of 5000 to 20000 nM; in test [2], 500 to 5000 nM.
In the same order, the values of `CCOC(=O)N1CC=C(c2coc3c(O[C@H](C)c4c(Cl)ccc(F)c4Cl)c(N)ncc23)CC1` [Example 51, 4-{6-Amino-7-[(R)-1-(2,6-dichloro-3-fluorophenyl)-ethoxy]-furo[3,2-c]pyridin-3-yl}-3,6-dihydro-2H-pyridine-1-carboxylic acid ethyl ester] are 500 to 5000 nM and 500 to 5000 nM.
The corresponding values for `CNC(=O)c1ccc(C(C)Oc2c(N)ncc3c(-c4cnn(C5CCNCC5)c4)coc23)cc1` (stereo not drawn) [Example 421, 4-{1-[6-Amino-3-(1-piperidin-4-yl-1H-pyrazol-4-yl)furo[3,2-c]pyridin-7-yloxy]ethyl}-N-methylbenzamide] are 5000 to 20000 nM and 500 to 5000 nM.
The corresponding values for `C[C@@H](Oc1c(N)ncc2c(C3=CCN(C=O)CC3)coc12)c1c(Cl)ccc(F)c1Cl` [Example 10, 4-{6-Amino-7-[(R)-1-(2,6-dichloro-3-fluorophenyl)-ethoxy]-furo[3,2-c]pyridin-3-yl}-3,6-dihydro-2H-pyridine-1-carbaldehyde] are < 500 nM and < 500 nM.
Regarding `CC(C)[C@@H](O)C(=O)N1CC=C(c2coc3c(O[C@H](C)c4c(Cl)ccc(F)c4Cl)c(N)ncc23)CC1` [Example 268, (2R)-1-[4-{6-Amino-7-[(1R)-1-(2,6-dichloro-3-fluorophenyl)ethoxy]furo[3,2-c]pyridin-3-yl}-3,6-dihydropyridin-1(2H)-yl]-2-hydroxy-3-methylbutan-1-one], the IC50 in test [1] and in test [2] was 500 to 5000 nM throughout.
On to `C[C@@H](Oc1c(N)ncc2c(-c3cccc(CN4CCCCC4)c3)coc12)c1c(Cl)ccc(F)c1Cl` [Example 91, 7-[(R)-1-(2,6-Dichloro-3-fluorophenyl)ethoxy]-3-(3-piperidin-1-ylmethylphenyl)furo[3,2-c]pyridin-6-ylamine], for which the IC50 in test [1] and in test [2] was < 500 nM each time.
As to `C[C@@H](Oc1c(N)ncc2c(-c3csc(C(N)=O)c3)coc12)c1c(Cl)ccc(F)c1Cl` [Example 318, 4-{6-Amino-7-[(R)-1-(2,6-dichloro-3-fluorophenyl)ethoxy]furo[3,2-c]pyridin-3-yl}thiophene-2-carboxamide], the IC50 in test [1] and in test [2] was 500 to 5000 nM each time.
With `COC(=O)c1cccc(C(C)Oc2c(N)ncc3c(-c4cnn(C5CCNCC5)c4)coc23)c1` (stereo not drawn) [Example 410, 3-{1-[6-Amino-3-(1-piperidin-4-yl-1H-pyrazol-4-yl)furo[3,2-c]pyridin-7-yloxy]ethyl}benzoic acid methyl ester], the IC50 in test [1] and in test [2] was 500 to 5000 nM in each case.
Consider `C[C@@H](Oc1c(N)ncc2c(C3=CCN(C(=O)c4ccn[nH]4)CC3)coc12)c1c(Cl)ccc(F)c1Cl` [Example 231, (4-{6-Amino-7-[(R)-1-(2,6-dichloro-3-fluorophenyl)ethoxy]-furo[3,2-c]pyridin-3-yl}-3,6-dihydro-2H-pyridin-1-yl)-(2H-pyrazol-3-yl)-methanone], for which the IC50 in test [1] and in test [2] was 500 to 5000 nM throughout.
Regarding `C[C@@H](Oc1c(N)ncc2c(-c3ccc(CN4CCOCC4)cc3)coc12)c1c(Cl)ccc(F)c1Cl` [Example 85, 7-[(R)-1-(2,6-Dichloro-3-fluorophenyl)ethoxy]-3-(4-morpholin-4-ylmethylphenyl)furo[3,2-c]pyridin-6-ylamine], the IC50 in test [1] and in test [2] was 500 to 5000 nM throughout.
In the case of `C[C@@H](Cc1ccccc1)Oc1c(N)ncc2c(-c3cnn(C4CCNCC4)c3)coc12` [Example 414, 7-((S)-1-Methyl-2-phenylethoxy)-3-(1-piperidin-4-yl-1H-pyrazol-4-yl)furo[3,2-c]pyridin-6-ylamine], the IC50 in test [1] is 500 to 5000 nM; in test [2] it was < 500 nM.
In the same order, the values of `C[C@@H](Oc1c(N)ncc2c(C3=CC4CCC(C3)N4)coc12)c1c(Cl)ccc(F)c1Cl` (stereo partly drawn) [Example 153, 3-(8-Azabicyclo[3.2.1]oct-2-en-3-yl)-7-[(1R)-1-(2,6-dichloro-3-fluorophenyl)ethoxy]furo[3,2-c]pyridin-6-amine] are 500 to 5000 nM and < 500 nM.
In the same order, the values of `C[C@@H](Oc1c(N)ncc2c(-c3cc(C(N)=O)cs3)coc12)c1c(Cl)ccc(F)c1Cl` [Example 326, 5-{6-Amino-7-[(R)-1-(2,6-dichloro-3-fluorophenyl)ethoxy]furo[3,2-c]pyridin-3-yl}thiophene-3-carboxamide] are 5000 to 20000 nM and 500 to 5000 nM.
In the same order, the values of `C[C@@H](Oc1c(N)ncc2c(C3=CCN(C(=O)N4CCCCC4)CC3)coc12)c1c(Cl)ccc(F)c1Cl` [Example 32, (4-{6-Amino-7-[(R)-1-(2,6-dichloro-3-fluorophenyl)-ethoxy]-furo[3,2-c]pyridin-3-yl}-3,6-dihydro-2H-pyridin-1-yl)-piperidin-1-ylmethanone] are 500 to 5000 nM and 500 to 5000 nM.
For `CC(Oc1c(N)ncc2c(-c3cnn(C4CCNCC4)c3)coc12)c1cccc(-c2ccn[nH]2)c1` (stereo not drawn) [Example 446], the IC50 was < 500 nM in test [1] and 500 to 5000 nM in test [2].
For `C[C@@H](Oc1c(N)ncc2c(C3=CCCC(N)C3)coc12)c1c(Cl)ccc(F)c1Cl` (stereo partly drawn) [Example 145, 3-(5-Aminocyclohex-1-enyl)-7-[(R)-1-(2,6-dichloro-3-fluoro-phenyl)ethoxy]furo[3,2-c]pyridin-6-ylamine], the results for the 50% inhibitory concentration (IC50) in test [1] and in test [2] were < 500 nM and 500 to 5000 nM, respectively.
The corresponding values for `C[C@@H](Oc1c(N)ncc2c(C(=O)NC(C)(C)C)coc12)c1c(Cl)ccc(F)c1Cl` [Example 184, 6-Amino-7-[(R)-1-(2,6-dichloro-3-fluorophenyl)ethoxy]furo[3,2-c]pyridine-3-carboxylic acid tert-butylamide] are 5000 to 20000 nM and 500 to 5000 nM.
For `CC(Cc1ccccc1Br)Oc1c(N)ncc2c(-c3cnn(C4CCNCC4)c3)coc12` (stereo not drawn) [Example 436, 7-[2-(2-Bromophenyl)-1-methylethoxy]-3-(1-piperidin-4-yl-1H-pyrazol-4-yl)furo[3,2-c]pyridin-6-ylamine], the IC50 in test [1] and in test [2] was < 500 nM each time.
As to `C[C@@H](Oc1c(N)ncc2c(-c3cccc(C(=O)N4CCN(C)CC4)c3)coc12)c1c(Cl)ccc(F)c1Cl` [Example 94, (3-{6-Amino-7-[(R)-1-(2,6-dichloro-3-fluorophenyl)ethoxy]furo[3,2-c]pyridin-3-yl}phenyl)(4-methylpiperazin-1-yl)methanone], the figures for the IC50 in test [1] and in test [2] were 500 to 5000 nM and < 500 nM, respectively.
The corresponding values for `C[C@@H](Oc1c(N)ncc2c(C3=CCN(C(=O)[C@@H]4C[C@@H](F)CN4)CC3)coc12)c1c(Cl)ccc(F)c1Cl` [Example 235, (4-{6-Amino-7-[(R)-1-(2,6-dichloro-3-fluorophenyl)ethoxy]-furo[3,2-c]pyridin-3-yl}-3,6-dihydro-2H-pyridin-1-yl)-((2S,4R)-4-fluoropyrrolidin-2-yl)-methanone] are < 500 nM and < 500 nM.
In the case of `C[C@@H](Oc1c(N)ncc2c(C3=CCN(C(=O)[C@@H](N)Cc4ccccc4)CC3)coc12)c1c(Cl)ccc(F)c1Cl` [Example 256, (2S)-2-Amino-1-[4-{6-amino-7-[(1R)-1-(2,6-dichloro-3-fluoro-phenyl)ethoxy]furo[3,2-c]pyridin-3-yl}-3,6-dihydropyridin-1(2H)-yl]-3-phenylpropan-1-one], the IC50 in test [1] was 500 to 5000 nM; in test [2] it was < 500 nM.
